Assays:
Type in all cases: in vivo
[1] = tested on: barnyardgrass (Echinochloa crus-galli); assay: Test Example 6: foliar spray, herbicidal activity index; set-up: key: “0” means that there was no or little difference in the degree of germination or growth between the treated and the untreated tested plants at the time of examination; “10” means that the test plants died complete or their germination or growth was completely inhibited; conditions: 4 days after application, index 0-10
Protocol: (§1) A plastic pot having longer side of 27 cm, shorter side of 19 cm and depth of 7 cm was filled with soil and then seeded with large crabgrass (Digitaria sanguinalis) and giant foxtail (Setaria faberi). Nine days after, barnyardgrass (Echinochloa crus-galli) was seeded therein and grown for 15 days in a greenhouse. Further, a plastic pot having longer side of 16.5 cm, shorter side of 12 cm and depth of 7 cm was filled with soil and then seeded with wild oat (Avena fatua), and grown for 18 days in a greenhouse. Then, each of the present compound 1-67 and A was formulated into an emulsifiable concentrate according to Formulation Example 2 and then diluted to the prescribed amount with water containing a spreading agent and the dilution was uniformly sprayed over the foliage of the test plants with a sprayer at a rate of 1000liters per hectare. After the application, the test plants were grown in the greenhouse for 4 days, and the herbicidal activity was examined. (In the Table 12, the test plants are shown as follows.
(§2) Barnyardgrass: B, Large crabgrass: LC, Giant foxtail: GF, Wild oat: W

[2] = tested on: giant foxtail (Setaria faberi); assay: as above; set-up: key: “0” means that there was no or little difference in the degree of germination or growth between the treated and the untreated tested plants at the time of examination; “10” means that the test plants died complete or their germination or growth was completely inhibited; conditions: 4 days after application, index 0-10
Protocol: as §1, §2

[3] = tested on: large crabgrass (Digitaria sanguinalis); assay: as above; conditions: 4 days after application, index 0-10
Protocol: as §1, §2

wild oat (Avena fatua) [4] = assay: as above; conditions: 4 days after application, index 0-10
Protocol: as §1, §2

[5] = tested on: barnyardgrass (Echinochloa crus-galli); assay: Test Example 7: foliar spray, herbicidal activity index; set-up: key: “0” means that there was no or little difference in the degree of germination or growth between the treated and the untreated tested plants at the time of examination; “10” means that the test plants died complete or their germination or growth was completely inhibited; conditions: 4 days after application, index 0-10
Protocol: as §1, with “compound 1-45” for “compound 1-67”, “and B” for “and A”, “of 1000 liters” for “of 1000liters”, “Table 13,” for “Table 12,”
as §2

[6] = tested on: giant foxtail (Setaria faberi); assay: as above; set-up: key: “0” means that there was no or little difference in the degree of germination or growth between the treated and the untreated tested plants at the time of examination; “10” means that the test plants died complete or their germination or growth was completely inhibited; conditions: 4 days after application, index 0-10
Protocol: as §1, with “compound 1-45” for “compound 1-67”, “and B” for “and A”, “of 1000 liters” for “of 1000liters”, “Table 13,” for “Table 12,”
as §2

[7] = tested on: large crabgrass (Digitaria sanguinalis); assay: as above; set-up: key: “0” means that there was no or little difference in the degree of germination or growth between the treated and the untreated tested plants at the time of examination; “10” means that the test plants died complete or their germination or growth was completely inhibited; conditions: 4 days after application, index 0-10
Protocol: as §1, with “compound 1-45” for “compound 1-67”, “and B” for “and A”, “of 1000 liters” for “of 1000liters”, “Table 13,” for “Table 12,”
as §2

wild oat (Avena fatua) [8] = assay: as above; conditions: 4 days after application, index 0-10
Protocol: as §1, with “compound 1-45” for “compound 1-67”, “and B” for “and A”, “of 1000 liters” for “of 1000liters”, “Table 13,” for “Table 12,”
as §2

[9] = tested on: ivyleaf morningglory (Ipomoea hederacea); assay: Test Example 1: foliar treatment of field; conditions: foliar spray, dosage 125 g/ha, 16 days after application
Protocol: (§3) A cylindrical plastic pot having a diameter of 10 cm and a depth of 10 cm was filled with soil and then seeded with ivyleaf morningglory (Ipomoea hederacea) and velvetleaf (Abutilon theophrasti). These test plants were grown in a greenhouse for 10 days. Then, each of compounds 1-2, 1-42, 1-45, 1-48, 2-2, 2-7, 2-42, 2-45, 3-2, 3-12, 4-7, 4-85, 5-12-R, 5-12-S, 5-17, 6-2, 7-2, 7-6, 7-8, 7-12, 7-48, 7-50, 7-84, 7-118, 7-119, 7-125, 9-7, 9-27 and 9-45 was formulated into an emulsifiable concentrate according to Formulation Example 2 and then diluted to the prescribed amount with water containing a spreading agent and the dilution was uniformly sprayed over the foliage of the test plants with a sprayer at a rate of 1000 liters per hectare. After the application, the test plants were grown in the greenhouse for 16 days, and the herbicidal activity was determined.

[10] = tested on: velvetleaf (Abutilon theophrasti); assay: Test Example 1: foliar treatment of field; conditions: foliar spray, dosage 125 g/ha, 16 days after application
Protocol: as §3

| Compound | Herbicidal activity B ([1]; dosage 32 g/ha) | Herbicidal activity B ([1]; dosage 125 g/ha) | Herbicidal activity GF ([2]; dosage 32 g/ha) | Herbicidal activity GF ([2]; dosage 125 g/ha) | Herbicidal activity LC ([3]; dosage 32 g/ha) | Herbicidal activity LC ([3]; dosage 125 g/ha) | Herbicidal activity W (wild oat (Avena fatua) [4]; dosage 32 g/ha) | Herbicidal activity W (wild oat (Avena fatua) [4]; dosage 125 g/ha) | Herbicidal activity B ([5]; dosage 32 g/ha) | Herbicidal activity B ([5]; dosage 125 g/ha) | Herbicidal activity GF ([6]; dosage 32 g/ha) | Herbicidal activity GF ([6]; dosage 125 g/ha) | Herbicidal activity LC ([7]; dosage 32 g/ha) | Herbicidal activity LC ([7]; dosage 125 g/ha) | Herbicidal activity W (wild oat (Avena fatua) [8]; dosage 32 g/ha) | Herbicidal activity W (wild oat (Avena fatua) [8]; dosage 125 g/ha) | growth of ivyleaf morningglory (herbicidal activity) [9] | growth of velvetleaf (herbicidal activity) [10] |
| --- | --- | --- | --- | --- | --- | --- | --- | --- | --- | --- | --- | --- | --- | --- | --- | --- | --- | --- |
| COc1cc(OC)nc(Nc2cc(-n3c(=O)cc(C(F)(F)F)n(C)c3=O)c(F)cc2Cl)n1 [A, reference compound] | 4 | 4 | 4 | 5 | 6 | 8 | 2 | 3 | – | – | – | – | – | – | – | – | – | – |
| COC(=O)COc1cc(OC)nc(Nc2cc(-n3c(=O)cc(C(F)(F)F)n(C)c3=O)c(F)cc2Cl)n1 [Compound 1-67, 2-{2-chloro-4-fluoro-5-[3-methyl-2,6-dioxo-4-(trifluoromethyl)-1,2,3,6-tetrahydropyrimidin-1-yl]phenylamino}-6-methoxy-4-(methoxycarbonyl)methoxypyrimidine] | 10 | 10 | 10 | 10 | 9 | 9 | 8 | 9 | – | – | – | – | – | – | – | – | – | – |
| COc1nc(OC)nc(Oc2cc(-n3c(=O)cc(C(F)(F)F)n(C)c3=O)c(F)cc2Cl)n1 [B, reference compound] | – | – | – | – | – | – | – | – | 6 | 8 | 6 | 8 | 8 | 8 | 6 | 9 | – | – |
| COC(=O)COc1cc(OC)nc(Oc2cc(-n3c(=O)cc(C(F)(F)F)n(C)c3=O)c(F)cc2Cl)n1 [Compound 1-45, 2-{2-chloro-4-fluoro-5-[3-methyl-2,6-dioxo-4-(trifluoromethyl)-1,2,3,6-tetrahydropyrimidin-1-yl]phenoxy}-6-methoxy-4-(methoxycarbonyl)methoxypyrimidine] | – | – | – | – | – | – | – | – | 10 | 10 | 10 | 10 | 10 | 10 | 9 | 9 | completely controlled | completely controlled |

Source: patent US6537948B1, “Uracil compounds and use thereof” (Sumitomo Chemical Company, Limited, priority 2000, dated 2003)
